Data as given in patent US20260250320A1, “LIPIDATED PEPTIDE INHIBITORS OF INTERLEUKIN-23 RECEPTOR” (Janssen Pharmaceutica NV, priority 2023, published 2026).
*1 amine or outer side, *2 acyl side, *3 side chain or, on linkers, in order; H or OH if unused. Where a SMILES comes first, the peptide text is derived from it. Bridges are numbered along the chain shown (N, C = ends). Side-chain parts run from the residue outwards. [ ]: non-standard residue; d: D form. The star is where a group is joined. FITC = O=C1OC2(c3ccc(O)cc3Oc3cc(O)ccc32)c2ccc(NC(=S)*)cc21; PEG12 = NCCOCCOCCOCCOCCOCCOCCOCCOCCOCCOCCOCCOCCC(=O)O; Trp(7-Me) = Cc1cccc2c(C[C@H](N)C(=O)O)c[nH]c12; C20 diacid = O=C(O)CCCCCCCCCCCCCCCCCCC(=O)*; C18 diacid = O=C(O)CCCCCCCCCCCCCCCCC(=O)*; X40 = C=C(/C=N\C)C[C@H](N[*:1])C(=O)[*:2]; γGlu = O=C(O)[C@H](CCC(=O)[*:2])N[*:1]; 2Nal = N[C@@H](Cc1ccc2ccccc2c1)C(=O)O; AEF = NCCOc1ccc(C[C@H](N)C(=O)O)cc1; X2 = C[N+](C)(C)C[C@@H](CC(=O)O)N*; 3Pal = N[C@@H](Cc1cccnc1)C(=O)O; NMeK = CN[C@@H](CCCCN)C(=O)O; PEG4 = NCCOCCOCCOCCOCCC(=O)O; Pen = CC(C)(S)[C@H](N)C(=O)O; Suc = O=C(CCC(=O)[*:2])[*:1]; Thp = NC1(C(=O)O)CCOCC1; AEEA = NCCOCCOCC(=O)O; Sar = CNCC(=O)O

Key:
[1] = tested on: IL-23-stimulated phosphorylated STAT3 in peripheral blood mononuclear cells (PBMCs); assay: PBMC pSTAT3 Assay; assay type: cell-based; details: PBMCs from healthy donors; 30 min preincubation with peptide; IL-23 5 ng/mL for 30 min; phospho-STAT3 by MSD
Procedure, shortened: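 Phospho-STAT3 quantified by Meso Scale assay in lysates of PBMCs exposed to IL-23 (5 ng/mL, 30 min, 37 °C) after 30 min peptide pretreatment. Cells were cryopreserved donor PBMCs activated 4 days with anti-CD3 plus IL-1β (100 ng/mL) and starved ~4 h; IC50 reported.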

IL-23R = biological target: T1, IL-23R (Homo sapiens, UniProt Q5VWK5); assay: IL23R Reporter Assay; assay type: cell-based; details: HEK293 cells containing IL-23R, IL-12Rβ1 and STAT-inducible firefly luciferase reporter; 10 ng/mL IL-23 (EC90); 5 h
T1 construct: HEK293 cells containing IL-23R, IL-12Rβ1 and a firefly luciferase reporter gene driven by a STAT-inducible promoter (Promega); host or cells: HEK293
T1 sequence (Q5VWK5 24-629): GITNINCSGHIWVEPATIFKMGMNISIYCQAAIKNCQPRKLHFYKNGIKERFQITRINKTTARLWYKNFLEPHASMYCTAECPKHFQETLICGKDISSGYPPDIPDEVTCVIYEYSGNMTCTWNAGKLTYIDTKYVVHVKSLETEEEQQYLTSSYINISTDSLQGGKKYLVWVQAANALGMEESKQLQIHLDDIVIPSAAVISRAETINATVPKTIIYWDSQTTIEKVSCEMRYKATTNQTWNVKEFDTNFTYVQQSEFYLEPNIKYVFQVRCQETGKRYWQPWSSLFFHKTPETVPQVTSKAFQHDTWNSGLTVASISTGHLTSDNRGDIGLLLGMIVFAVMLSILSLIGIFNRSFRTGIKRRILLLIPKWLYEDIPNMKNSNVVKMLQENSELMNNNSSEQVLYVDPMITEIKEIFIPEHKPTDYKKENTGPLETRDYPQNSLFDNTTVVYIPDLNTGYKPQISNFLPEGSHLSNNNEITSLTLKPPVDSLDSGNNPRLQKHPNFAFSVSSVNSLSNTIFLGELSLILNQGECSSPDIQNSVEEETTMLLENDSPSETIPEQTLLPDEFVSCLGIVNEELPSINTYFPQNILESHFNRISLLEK
Procedure, shortened: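 IC50 values were fitted with a 4-parameter Hill equation to luciferase signal, scaled between IL-23-only wells (0% inhibition) and 30 μM reference inhibitor (100%). The readout was a STAT-inducible reporter in IL-23R/IL-12Rβ1 HEK293 cells, stimulated with added 10 ng/mL IL-23 (EC90) for 5 h at 37° C and developed with BioGlo.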

| Structure (SMILES) | IC50 (IL-23R) | IC50 [1] |
| --- | --- | --- |
| CC(=O)NCCCC[C@@H]1NC(=O)[C@H](Cc2c[nH]c3c(C)cccc23)NC(=O)[C@H]([C@@H](C)O)NC(=O)[C@H](CC(N)=O)NC(=O)[C@@H](NC(=O)[C@@H](CCCNC(=N)N)NC(C)=O)C(C)(C)SSC(C)(C)[C@@H](C(=O)N[C@@H](Cc2ccc(OCCN)cc2)C(=O)N[C@@H](Cc2ccc3ccccc3c2)C(=O)NC2(C(=O)N[C@@H](CCCCNC(=O)COCCOCCNC(=O)COCCOCCNC(=O)CC[C@H](NC(=O)CCCCCCCCCCCCCCCCC(=O)O)C(=O)O)C(=O)N[C@@H](CC(N)=O)C(=O)N[C@@H](Cc3cccnc3)C(=O)N(C)[C@@H](CCCCNC(=O)CCC(=O)N[C@H](CC(=O)O)C[N+](C)(C)C)C(N)=O)CCOCC2)NC1=O [compound 21, MeCO-r-Pen(3)-N-T-7MeW-K(Ac)-Pen(3)-AEF-2Nal-THP-K(PEG2PEG2gEC18OH)-N-3Pya-NMeK(d)-CONH2] (Ac-[dR][Pen]NT[Trp(7-Me)]K(Ac)[Pen][AEF][2Nal][Thp]K([AEEA-AEEA-γGlu-C18 diacid])N[3Pal][NMeK]([Suc-X2])-NH2; disulfide 2-7) | < 0.05 µM | < 0.0005 µM |
| CC(=O)NCCCC[C@@H]1NC(=O)[C@H](Cc2c[nH]c3c(C)cccc23)NC(=O)[C@H]([C@@H](C)O)NC(=O)[C@H](CC(N)=O)NC(=O)[C@@H](NC(=O)[C@@H](CCCNC(=N)N)NC(C)=O)C(C)(C)SSC(C)(C)[C@@H](C(=O)N[C@@H](Cc2ccc(OCCNC(=O)CCC(=O)N[C@H](CC(=O)O)C[N+](C)(C)C)cc2)C(=O)N[C@@H](Cc2ccc3ccccc3c2)C(=O)NC2(C(=O)N[C@@H](CCCCNC(=O)COCCOCCNC(=O)COCCOCCNC(=O)CC[C@H](NC(=O)CCCCCCCCCCCCCCCCC(=O)O)C(=O)O)C(=O)N[C@@H](CC(N)=O)C(=O)N[C@@H](Cc3cccnc3)C(=O)N(C)CC(N)=O)CCOCC2)NC1=O [compound 22, MeCO-r-Pen(3)-N-T-7MeW-K(Ac)-Pen(3)-AEF(d)-2Nal-THP-K(PEG2PEG2gEC18OH)-N-3Pya-Sar-CONH2] (Ac-[dR][Pen]NT[Trp(7-Me)]K(Ac)[Pen][AEF]([Suc-X2])[2Nal][Thp]K([AEEA-AEEA-γGlu-C18 diacid])N[3Pal][Sar]-NH2; disulfide 2-7) | < 0.05 µM | < 0.0005 µM |
| C=CCOC(=O)CN1CCOc2ccc(cc2)C[C@H](NC(=O)[C@H]2NC(=O)[C@H](CCCCNC(C)=O)NC(=O)[C@H](Cc3c[nH]c4c(C)cccc34)NC(=O)[C@H]([C@@H](C)O)NC(=O)[C@H](CCCCNC(=O)COCCOCCNC(=O)COCCOCCNC(=O)CC[C@H](NC(=O)CCCCCCCCCCCCCCCCCC(=O)O)C(=O)O)NC(=O)[C@@H](NC(=O)CCOCCOCCNC(=O)COCCOCCNC(=O)COCCOCCNC(=O)CC[C@H](NC(=O)CCCCCCCCCCCCCCCCC(=O)O)C(=O)O)C(C)(C)SSC2(C)C)C(=O)N[C@@H](Cc2ccc3ccccc3c2)C(=O)NC2(CCOCC2)C(=O)N[C@@H]1C(=O)N[C@@H](CC(N)=O)C(=O)N[C@@H](Cc1cccnc1)C(=O)N(C)CC(N)=O [compound 24, AEEP(PEG2PEG2gEC18OH)-Pen(3)-K(PEG2PEG2gEC18OH)-T-7MeW-K(Ac)-Pen(3)-AEF-2Nal-THP-E(OAll)-N-3Pya-Sar-CONH2] | 0.05 to 0.5 µM | 0.0005 to 0.005 µM |
| CC(=O)NCCCC[C@@H]1NC(=O)[C@H](Cc2c[nH]c3c(C)cccc23)NC(=O)[C@H]([C@@H](C)O)NC(=O)[C@H](CC(N)=O)NC(=O)[C@@H](NC(=O)[C@@H](CCCNC(=N)N)NC(=O)CCOCCOCCOCCOCCNC(=S)Nc2ccc3c(c2)C(=O)OC32c3ccc(O)cc3Oc3cc(O)ccc32)C(C)(C)SSC(C)(C)[C@@H](C(=O)N[C@@H](Cc2ccc(OCCN)cc2)C(=O)N[C@@H](Cc2ccc3ccccc3c2)C(=O)NC2(C(=O)N[C@@H](CCC(=O)O)C(=O)N[C@@H](CC(N)=O)C(=O)N[C@@H](Cc3cccnc3)C(=O)N(C)CC(=O)N[C@@H](CCCCNC(=O)COCCOCCNC(=O)COCCOCCNC(=O)CC[C@H](NC(=O)CCCCCCCCCCCCCCCCC(=O)O)C(=O)O)C(N)=O)CCOCC2)NC1=O [compound 25, FITCPEG4CO-r-Pen(3)-N-T-7MeW-K(Ac)-Pen(3)-AEF-2Nal-THP-E-N-3Pya-Sar-K(PEG2PEG2gEC18OH)-CONH2] ({FITC-PEG4}-[dR][Pen]NT[Trp(7-Me)]K(Ac)[Pen][AEF][2Nal][Thp]EN[3Pal][Sar]K([AEEA-AEEA-γGlu-C18 diacid])-NH2; disulfide 2-7) | 0.05 to 0.5 µM | 0.0005 to 0.005 µM |

Now from value to compound, other results behind:

| IC50 (IL-23R) | Structure (SMILES) | IC50 [1] |
| --- | --- | --- |
| 0.05 to 0.5 µM | CC(=O)NCCCC[C@@H]1NC(=O)[C@H](Cc2c[nH]c3c(C)cccc23)NC(=O)[C@H]([C@@H](C)O)NC(=O)[C@H](CCCCNC(=O)COCCOCCNC(=O)COCCOCCNC(=O)CC[C@H](NC(=O)CCCCCCCCCCCCCCCCC(=O)O)C(=O)O)NC(=O)[C@@H](NC(=O)[C@@H](CCCNC(=N)N)NC(=O)CCC(=O)N[C@H](CC(=O)O)C[N+](C)(C)C)C(C)(C)SSC(C)(C)[C@@H](C(=O)N[C@@H](Cc2ccc(OCCN)cc2)C(=O)N[C@@H](Cc2ccc3ccccc3c2)C(=O)NC2(C(=O)N[C@@H](CCC(=O)O)C(=O)N[C@@H](CC(N)=O)C(=O)N[C@@H](Cc3cccnc3)C(=O)N(C)CC(N)=O)CCOCC2)NC1=O [compound 18, succiniccarn-r-Pen(3)-K(PEG2PEG2gEC18OH)-T-7MeW-K(Ac)-Pen(3)-AEF-2Nal-THP-E-N-3Pya-Sar-CONH2] ({X2-Suc}-[dR][Pen]K([AEEA-AEEA-γGlu-C18 diacid])T[Trp(7-Me)]K(Ac)[Pen][AEF][2Nal][Thp]EN[3Pal][Sar]-NH2; disulfide 2-7) | < 0.0005 µM |
| 0.05 to 0.5 µM | Cc1cccc2c(C[C@@H]3NC(=O)[C@H]([C@@H](C)O)NC(=O)[C@H](CC(N)=O)NC(=O)[C@@H](NC(=O)[C@@H](CCCNC(=N)N)NC(=O)CCC(=O)N[C@H](CC(=O)O)C[N+](C)(C)C)C(C)(C)SSC(C)(C)[C@@H](C(=O)N[C@@H](Cc4ccc(OCCN)cc4)C(=O)N[C@@H](Cc4ccc5ccccc5c4)C(=O)NC4(C(=O)N[C@@H](CCC(=O)O)C(=O)N[C@@H](CC(N)=O)C(=O)N[C@@H](Cc5cccnc5)C(=O)N(C)CC(N)=O)CCOCC4)NC(=O)[C@H](CCCCNC(=O)COCCOCCNC(=O)COCCOCCNC(=O)CC[C@H](NC(=O)CCCCCCCCCCCCCCCCC(=O)O)C(=O)O)NC3=O)c[nH]c12 [compound 19, MeCO-r-Pen(3)-N-T-7MeW-K(PEG2PEG2gEC18OH)-Pen(3)-AEF-2Nal-THP-E-N-3Pya-NMeK(d)-CONH2] ({X2-Suc}-[dR][Pen]NT[Trp(7-Me)]K([AEEA-AEEA-γGlu-C18 diacid])[Pen][AEF][2Nal][Thp]EN[3Pal][Sar]-NH2; disulfide 2-7) | < 0.0005 µM |
| < 0.05 µM | C=C(/C=N\C)C[C@H](NC(=O)[C@H](CC(N)=O)NC(=O)[C@H](CCC(=O)O)NC(=O)C1(NC(=O)[C@H](Cc2ccc3ccccc3c2)NC(=O)[C@H](Cc2ccc(OCCN)cc2)NC(=O)[C@H]2NC(=O)[C@H](CCCCNC(C)=O)NC(=O)[C@H](Cc3c[nH]c4c(C)cccc34)NC(=O)[C@H]([C@@H](C)O)NC(=O)[C@H](CC(N)=O)NC(=O)[C@@H](NC(=O)[C@@H](CCCCNC(=O)CCOCCOCCOCCOCCOCCOCCOCCOCCOCCOCCOCCOCCNC(=O)CC[C@H](NC(=O)CCCCCCCCCCCCCCCCCCC(=O)O)C(=O)O)NC(C)=O)C(C)(C)SSC2(C)C)CCOCC1)C(=O)N(C)CC(N)=O [compound 26, MeCO-k(PEG12gEC20OH)-Pen(3)-N-T-7MeW-K(Ac)-Pen(3)-AEF-2Nal-THP-E-N-3Pya-Sar-CONH2] (Ac-[dK]([PEG12-γGlu-C20 diacid])[Pen]NT[Trp(7-Me)]K(Ac)[Pen][AEF][2Nal][Thp]EN[X40][Sar]-NH2; disulfide 2-7) | < 0.0005 µM |
| < 0.05 µM | CC(=O)NCCCC[C@@H]1NC(=O)[C@H](Cc2c[nH]c3c(C)cccc23)NC(=O)[C@H]([C@@H](C)O)NC(=O)[C@H](CC(N)=O)NC(=O)[C@@H](NC(C)=O)C(C)(C)SSC(C)(C)[C@@H](C(=O)N[C@@H](Cc2ccc(OCCN)cc2)C(=O)N[C@@H](Cc2ccc3ccccc3c2)C(=O)NC2(C(=O)N[C@@H](CCC(=O)O)C(=O)N[C@@H](CC(N)=O)C(=O)N[C@@H](Cc3cccnc3)C(=O)N(C)CC(=O)N[C@@H](CCCCNC(=O)COCCOCCNC(=O)COCCOCCNC(=O)CC[C@H](NC(=O)CCCCCCCCCCCCCCCCC(=O)O)C(=O)O)C(N)=O)CCOCC2)NC1=O [compound 27, MeCO-Pen(3)-N-T-7MeW-K(Ac)-Pen(3)-AEF-2Nal-THP-E-N-3Pya-Sar-K(PEG2PEG2gEC18OH)-CONH2] | < 0.0005 µM |
